The values below are quoted from earlier work in patent publication US9920014B2, “Selective inhibition of bacterial topoisomerase I” (THE FLORIDA INTERNATIONAL BOARD OF TRUSTEES MODESTO A. …, priority 2013, dated 2018).

What is called IC50 is the midpoint of a concentration-inhibition curve.

The data set has as its target E. coli DNA topoisomerase I (Escherichia coli, UniProt P06612). The note with it: reported by Bansal et al. 2012; read-out: E. coli Topo I IC50 (literature value); cited from earlier work.

Sequence of E. coli DNA topoisomerase I (P06612 whole entry): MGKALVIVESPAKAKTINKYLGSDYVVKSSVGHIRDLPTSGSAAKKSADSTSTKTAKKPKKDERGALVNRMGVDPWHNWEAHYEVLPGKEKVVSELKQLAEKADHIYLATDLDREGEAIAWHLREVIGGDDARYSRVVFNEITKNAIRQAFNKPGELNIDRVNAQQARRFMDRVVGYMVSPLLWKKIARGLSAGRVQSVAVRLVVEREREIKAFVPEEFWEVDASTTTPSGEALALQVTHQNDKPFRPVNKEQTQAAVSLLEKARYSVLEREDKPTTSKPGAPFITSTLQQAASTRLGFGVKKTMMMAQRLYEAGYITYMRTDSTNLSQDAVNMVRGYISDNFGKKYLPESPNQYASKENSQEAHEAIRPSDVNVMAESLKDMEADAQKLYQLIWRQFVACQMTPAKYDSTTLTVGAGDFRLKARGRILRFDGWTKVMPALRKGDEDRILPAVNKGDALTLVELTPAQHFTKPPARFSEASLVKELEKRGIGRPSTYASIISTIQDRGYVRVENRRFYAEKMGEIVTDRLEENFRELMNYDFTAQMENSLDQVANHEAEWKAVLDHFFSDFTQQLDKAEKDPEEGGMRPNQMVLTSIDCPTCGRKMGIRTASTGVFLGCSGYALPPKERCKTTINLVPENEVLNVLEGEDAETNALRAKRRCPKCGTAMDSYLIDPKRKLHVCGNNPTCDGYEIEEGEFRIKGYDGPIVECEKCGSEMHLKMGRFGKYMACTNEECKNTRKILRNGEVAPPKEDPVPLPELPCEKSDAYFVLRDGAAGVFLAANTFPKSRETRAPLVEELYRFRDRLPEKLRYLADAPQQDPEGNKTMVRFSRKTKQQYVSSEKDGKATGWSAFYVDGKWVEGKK

Regarding `COc1ccc(-c2nc3ccc(-c4nc5ccc(N6CCN(C)CC6)cc5[nH]4)cc3[nH]2)cc1OC` [DMA], the IC50 is 3.8 µM.
